{
  "source": "paper PMC8199036",
  "about": "“Improved Tumor-Targeting with Peptidomimetic Analogs of Minigastrin ^177Lu-PP-F11N” (Cancers, 2021)",
  "tested_on": "A431-CCK2R cells",
  "experiment": "cell binding and internalization",
  "type": "cell-based",
  "details": "for internalized blocked / membrane-bound blocked: 6000-fold excess of minigastrin; for internalized specific / membrane-bound specific: total minus blocked",
  "excerpt": "Procedures for (radio)metal labeling of the DOTA–minigastrin conjugates with ^177Lu^3+ and ^natLu^3+, cell culturing of A431-CCK2R cells, cell internalization (including blocking experiments with excess minigastrin (H-LE5AYGWMDF-NH2)), competition binding assays (IC50), stability measurements in human blood plasma, and determinations of logDpH 7.4 have been reported previously for the in vitro evaluation of TZMGs and were applied to NMGs without alteration.\nFigure 2 (A) Total internalization of ^177Lu-labeled conjugates (2 nM, 5 kBq) in […] cells over 4 h (n = 3–4 in triplicate). […] Data points show mean value ± standard deviation.\nCell Internalization Data\nCell internalization was determined and analyzed as described in Grob, et al., J Med Chem, 2020.1 Specific values result from values of total internalization or cell binding minus values obtained in presence of a 6000-fold excess of minigas- […]\nIncubation time membrane-bound internalized total blocked specific total blocked specific\nTable S3: Complete Internalization Data for 177Lu-labeled NMG 1 as mean ± standard deviation from n = 3–4 in triplicates.\nTable S4: Complete Internalization Data for 177Lu-labeled NMG 2 as mean ± standard deviation from n = 3–4 in triplicates.\nTable S5: Complete Internalization Data for 177Lu-labeled NMG 3 as mean ± standard deviation from n = 3–4 in triplicates.",
  "note": "Starred links: 1 amine or outer side, 2 acyl side, 3 side chain; linkers in the order of their positions; H or OH if unused. Non-standard residues stand in square brackets, D forms with d. Residues, ends and D or L forms follow the SMILES beside them. *: point of attachment. DOTA = O=C(O)CN1CCN(CC(=O)O)CCN(CC(=O)*)CCN(CC(=O)O)CC1; X1 = C[C@@H](C(=O)[*:2])n1cc([C@@H](CCC(=O)O)N[*:1])nn1; X2 = O=C(Cn1cc([C@H](Cc2ccc(O)cc2)N[*:1])nn1)[*:2]; Nle = CCCC[C@H](N)C(=O)O",
  "data": [
    {"compound": "CCCC[C@H](NC(=O)[C@H](Cc1c[nH]c2ccccc12)NC(=O)Cn1cc([C@H](Cc2ccc(O)cc2)NC(=O)[C@H](C)n2cc([C@@H](CCC(=O)O)NC(=O)[C@@H](CCC(=O)O)NC(=O)[C@@H](CCC(=O)O)NC(=O)[C@@H](CCC(=O)O)NC(=O)[C@@H](CCC(=O)O)NC(=O)[C@@H](CCC(=O)O)NC(=O)CN3CCN(CC(=O)O)CCN(CC(=O)O)CCN(CC(=O)O)CC3)nn2)nn1)C(=O)N[C@@H](CC(=O)O)C(=O)N[C@@H](Cc1ccccc1)C(N)=O", "note": "[NMG 3, DOTA-(DGlu)6 -Ψ[Tz]-Ala-Tyr-Ψ[Tz]-Gly-Trp-Nle-Asp-Phe-NH2] ({DOTA}-[dE][dE][dE][dE][dE][X1][X2]W[Nle]DF-NH2)", "values": [
      {"measurement": "internalized total", "setting": "0.5 h", "value": "33.9 ± 1.1", "unit": "%"},
      {"measurement": "membrane-bound total", "setting": "0.5 h", "value": "7.7 ± 0.8", "unit": "%"},
      {"measurement": "internalized blocked", "setting": "0.5 h", "value": "0.4 ± 0.3", "unit": "%"},
      {"measurement": "membrane-bound blocked", "setting": "0.5 h", "value": "0.9 ± 0.3", "unit": "%"},
      {"measurement": "internalized specific", "setting": "0.5 h", "value": "33.5 ± 1.1", "unit": "%"},
      {"measurement": "membrane-bound specific", "setting": "0.5 h", "value": "6.8 ± 1.0", "unit": "%"},
      {"measurement": "internalized total", "setting": "1 h", "value": "57.2 ± 2.3", "unit": "%"},
      {"measurement": "membrane-bound total", "setting": "1 h", "value": "6.4 ± 0.3", "unit": "%"},
      {"measurement": "internalized blocked", "setting": "1 h", "value": "0.7 ± 0.3", "unit": "%"},
      {"measurement": "membrane-bound blocked", "setting": "1 h", "value": "0.9 ± 0.3", "unit": "%"},
      {"measurement": "internalized specific", "setting": "1 h", "value": "56.5 ± 2.1", "unit": "%"},
      {"measurement": "membrane-bound specific", "setting": "1 h", "value": "5.5 ± 0.4", "unit": "%"},
      {"measurement": "internalized total", "setting": "2 h", "value": "73.4 ± 1.3", "unit": "%"},
      {"measurement": "membrane-bound total", "setting": "2 h", "value": "4.0 ± 0.6", "unit": "%"},
      {"measurement": "internalized blocked", "setting": "2 h", "value": "5.5 ± 3.9", "unit": "%"},
      {"measurement": "membrane-bound blocked", "setting": "2 h", "value": "1.8 ± 1.3", "unit": "%"},
      {"measurement": "internalized specific", "setting": "2 h", "value": "67.9 ± 3.4", "unit": "%"},
      {"measurement": "membrane-bound specific", "setting": "2 h", "value": "2.2 ± 1.3", "unit": "%"},
      {"measurement": "membrane-bound total", "setting": "4 h", "value": "3.2 ± 0.3", "unit": "%"},
      {"measurement": "internalized blocked", "setting": "4 h", "value": "18.4 ± 4.3", "unit": "%"},
      {"measurement": "membrane-bound blocked", "setting": "4 h", "value": "2.4 ± 0.6", "unit": "%"},
      {"measurement": "internalized specific", "setting": "4 h", "value": "57.7 ± 4.2", "unit": "%"},
      {"measurement": "membrane-bound specific", "setting": "4 h", "value": "0.8 ± 0.6", "unit": "%"},
      {"measurement": "cell-associated radioactivity", "setting": "after 4 h of incubation", "value": "~80", "unit": "%"}
    ]}
  ]
}
